Test results taken from patent publication US8933103B2, “Pyridone derivatives” (Daiichi Sankyo Company, Limited, priority 2012, dated 2015).

Target: T1, AXL (fusion protein of amino acids 464-885 of the intracellular domain of human AXL with glutathione transferase) (Homo sapiens, UniProt P30530)
T1 sequence (P30530 464-885 isoform P30530-2): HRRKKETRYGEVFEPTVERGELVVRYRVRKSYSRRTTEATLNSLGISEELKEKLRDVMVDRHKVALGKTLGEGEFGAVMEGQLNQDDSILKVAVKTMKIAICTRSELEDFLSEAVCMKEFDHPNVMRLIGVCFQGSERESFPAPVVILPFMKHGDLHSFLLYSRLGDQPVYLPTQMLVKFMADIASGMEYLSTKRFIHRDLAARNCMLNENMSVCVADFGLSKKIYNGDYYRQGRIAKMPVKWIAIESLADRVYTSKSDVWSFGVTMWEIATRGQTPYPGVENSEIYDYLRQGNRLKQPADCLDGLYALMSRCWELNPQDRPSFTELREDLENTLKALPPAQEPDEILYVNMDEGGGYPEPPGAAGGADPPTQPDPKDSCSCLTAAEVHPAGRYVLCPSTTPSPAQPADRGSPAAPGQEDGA
Assay: Cell-Free Axl Kinase Inhibitory Activity
Experimental: Next, the test compound was diluted with DMSO, and 1 μl of this diluted solution was added to each well.
Five microliters of this solution were added to each well to initiate a kinase reaction. The plate was incubated at 28° C. for 1.5 hours, and 40 μl of a termination buffer (100 mM HEPES (pH 7.4), 0.015% Brij-35, 40 mM EDTA, 0.1% Coating Reagent 3) was added to each well to terminate the reaction.
The substrate peptide and the phosphorylated peptide in the reaction solution were separated and quantified by EZ Reader II (Caliper Life Sciences).
IC50 was determined from inhibition data for 12 test compound concentrations by nonlinear regression (four-parameter logistic regression) using the following formula.

Compound	IC50
CC(O)Cn1cc(-c2cnc(N)c(-c3ccc(NC(=O)c4cn(CCF)cc(-c5ccc(F)cc5)c4=O)cc3)c2)cn1 (racemic) [Example 63, N-(4-{2-Amino-5-[1-(2-hydroxypropyl)-1H-pyrazol-4-yl]pyridin-3-yl}phenyl)-1-(2-fluoroethyl)-5-(4-fluorophenyl)-4-oxo-1,4-dihydropyridine-3-carboxamide]	1 to 10 nM
COc1ccc(-c2cnc(N)c(-c3ccc(NC(=O)c4cn(C)cc(-c5ccc(F)cc5)c4=O)cc3)c2)cc1OC [Example 2, N-{4-[2-Amino-5-(3,4-dimethoxyphenyl)pyridin-3-yl]phenyl}-5-(4-fluorophenyl)-1-methyl-4-oxo-1,4-dihydropyridine-3-carboxamide]	1 to 10 nM
COc1ccc(-c2cnc(N)c(-c3ccc(NC(=O)c4cn(C(C)C)cc(-c5ccc(F)cc5)c4=O)cc3)c2)cc1OC [Example 4, N-{4-[2-Amino-5-(3,4-dimethoxyphenyl)pyridin-3-yl]phenyl}-5-(4-fluorophenyl)-4-oxo-1-(propan-2-yl)-1,4-dihydropyridine-3-carboxamide]	1 to 10 nM
COc1ccc(-c2cnc(N)c(-c3ccc(NC(=O)c4cn(CCF)cc(-c5ccc(F)cc5)c4=O)cc3)c2)cc1OC [Example 8, N-{4-[2-Amino-5-(3,4-dimethoxyphenyl)pyridin-3-yl]phenyl}-1-(2-fluoroethyl)-5-(4-fluorophenyl)-4-oxo-1,4-dihydropyridine-3-carboxamide]	1 to 10 nM
COc1ccc(-c2cnc(N)c(-c3ccc(NC(=O)c4cn(Cc5ccccc5)cc(-c5ccc(F)cc5)c4=O)cc3)c2)cc1OC [Example 10, N-{4-[2-Amino-5-(3,4-dimethoxyphenyl)pyridin-3-yl]phenyl}-1-benzyl-5-(4-fluorophenyl)-4-oxo-1,4-dihydropyridine-3-carboxamide]	1 to 10 nM
COc1ccc(-c2cnc(N)c(-c3ccc(NC(=O)c4cn(CC(=O)N(C)C)cc(-c5ccc(F)cc5)c4=O)cc3)c2)cc1OC [Example 16, N-{4-[2-Amino-5-(3,4-dimethoxyphenyl)pyridin-3-yl]phenyl}-1-[2-(dimethylamino)-2-oxoethyl]-5-(4-fluorophenyl)-4-oxo-1,4-dihydropyridine-3-carboxamide]	1 to 10 nM
COc1ccc(-c2cnc(N)c(-c3ccc(NC(=O)c4cn(CCF)cc(-c5ccccc5)c4=O)cc3)c2)cc1OC [Example 19, N-{4-[2-Amino-5-(3,4-dimethoxyphenyl)pyridin-3-yl]phenyl}-1-(2-fluoroethyl)-4-oxo-5-phenyl-1,4-dihydropyridine-3-carboxamide]	1 to 10 nM
COc1ccc(-c2cnc(N)c(-c3ccc(NC(=O)c4cn(CC(F)(F)F)cc(-c5ccccc5)c4=O)cc3)c2)cc1OC [Example 20, N-{4-[2-Amino-5-(3,4-dimethoxyphenyl)pyridin-3-yl]phenyl}-4-oxo-5-phenyl-1-(2,2,2-trifluoroethyl)-1,4-dihydropyridine-3-carboxamide]	1 to 10 nM
COc1ccc(-c2cnc(N)c(-c3ccc(NC(=O)c4cn(CC(F)(F)F)cc(-c5ccccc5F)c4=O)cc3)c2)cc1OC [Example 21, N-{4-[2-Amino-5-(3,4-dimethoxyphenyl)pyridin-3-yl]phenyl}-5-(2-fluorophenyl)-4-oxo-1-(2,2,2-trifluoroethyl)-1,4-dihydropyridine-3-carboxamide]	1 to 10 nM
COc1ccc(-c2cnc(N)c(-c3ccc(NC(=O)c4cn(CC(F)(F)F)cc(-c5ccc(F)nc5)c4=O)cc3)c2)cc1OC [Example 23, N-{4-[2-Amino-5-(3,4-dimethoxyphenyl)pyridin-3-yl]phenyl}-6′-fluoro-4-oxo-1-(2,2,2-trifluoroethyl)-1,4-dihydro-3,3′-bipyridine-5-carboxamide]	1 to 10 nM
COc1ccc(-c2cnc(N)c(-c3ccc(NC(=O)c4cn(CC(F)(F)F)cc(-c5ccc(Cl)cc5)c4=O)cc3)c2)cc1OC [Example 25, N-{4-[2-Amino-5-(3,4-dimethoxyphenyl)pyridin-3-yl]phenyl}-5-(4-chlorophenyl)-4-oxo-1-(2,2,2-trifluoroethyl)-1,4-dihydropyridine-3-carboxamide]	1 to 10 nM
COc1ccc(-c2cnc(N)c(-c3ccc(NC(=O)c4cn(Cc5ccc(F)cc5)cc(-c5nnc(C)o5)c4=O)cc3)c2)cc1OC [Example 28, N-{4-[2-Amino-5-(3,4-dimethoxyphenyl)pyridin-3-yl]phenyl}-1-(4-fluorobenzyl)-5-(5-methyl-1,3,4-oxadiazol-2-yl)-4-oxo-1,4-dihydropyridine-3-carboxamide]	0.1 to 1 nM
COc1ccc(-c2cnc(N)c(-c3ccc(NC(=O)c4cn(CC(F)(F)F)cc(-c5ccc(F)cc5)c4=O)cc3F)c2)cc1OC [Example 29, N-{4-[2-Amino-5-(3,4-dimethoxyphenyl)pyridin-3-yl]-3-fluorophenyl}-5-(4-fluorophenyl)-4-oxo-1-(2,2,2-trifluoroethyl)-1,4-dihydropyridine-3-carboxamide]	0.1 to 1 nM
COc1cc(-c2cnc(N)c(-c3ccc(NC(=O)c4cn(CC(F)(F)F)cc(-c5ccc(F)cc5)c4=O)cc3)c2)ccc1O [Example 37, N-{4-[2-Amino-5-(4-hydroxy-3-methoxyphenyl)pyridin-3-yl]phenyl}-5-(4-fluorophenyl)-4-oxo-1-(2,2,2-trifluoroethyl)-1,4-dihydropyridine-3-carboxamide]	1 to 10 nM
COCCOc1ccc(-c2cnc(N)c(-c3ccc(NC(=O)c4cn(CC(F)(F)F)cc(-c5ccc(F)cc5)c4=O)cc3)c2)cc1OC [Example 38, N-(4-{2-Amino-5-[3-methoxy-4-(2-methoxyethoxy)phenyl]pyridin-3-yl}phenyl)-5-(4-fluorophenyl)-4-oxo-1-(2,2,2-trifluoroethyl)-1,4-dihydropyridine-3-carboxamide]	0.1 to 1 nM

More lines, now with the values ahead:

IC50	Compound
0.1 to 1 nM	CCn1cc(C(=O)Nc2ccc(-c3cc(-c4ccc(OC)c(OC)c4)cnc3N)cc2)c(=O)c(-c2ccc(F)cc2)c1 [Example 3, N-{4-[2-Amino-5-(3,4-dimethoxyphenyl)pyridin-3-yl]phenyl}-1-ethyl-5-(4-fluorophenyl)-4-oxo-1,4-dihydropyridine-3-carboxamide]
0.1 to 1 nM	COCCn1cc(C(=O)Nc2ccc(-c3cc(-c4ccc(OC)c(OC)c4)cnc3N)cc2)c(=O)c(-c2ccc(F)cc2)c1 [Example 5, N-{4-[2-Amino-5-(3,4-dimethoxyphenyl)pyridin-3-yl]phenyl}-5-(4-fluorophenyl)-1-(2-methoxyethyl)-4-oxo-1,4-dihydropyridine-3-carboxamide]
0.1 to 1 nM	COc1ccc(-c2cnc(N)c(-c3ccc(NC(=O)c4cn(Cc5ccc(F)cc5)cc(-c5ccc(F)cc5)c4=O)cc3)c2)cc1OC [Example 11, N-{4-[2-Amino-5-(3,4-dimethoxyphenyl)pyridin-3-yl]phenyl}-1-(4-fluorobenzyl)-5-(4-fluorophenyl)-4-oxo-1,4-dihydropyridine-3-carboxamide]
0.1 to 1 nM	COc1ccc(-c2cnc(N)c(-c3ccc(NC(=O)c4cn(Cc5ccccn5)cc(-c5ccc(F)cc5)c4=O)cc3)c2)cc1OC [Example 12, N-{4-[2-Amino-5-(3,4-dimethoxyphenyl)pyridin-3-yl]phenyl}-5-(4-fluorophenyl)-4-oxo-1-(pyridin-2-ylmethyl)-1,4-dihydropyridine-3-carboxamide]
0.1 to 1 nM	COc1ccc(-c2cnc(N)c(-c3ccc(NC(=O)c4cn(Cc5ccncc5)cc(-c5ccc(F)cc5)c4=O)cc3)c2)cc1OC [Example 13, N-{4-[2-Amino-5-(3,4-dimethoxyphenyl)pyridin-3-yl]phenyl}-5-(4-fluorophenyl)-4-oxo-1-(pyridin-4-ylmethyl)-1,4-dihydropyridine-3-carboxamide]
0.1 to 1 nM	CNC(=O)Cn1cc(C(=O)Nc2ccc(-c3cc(-c4ccc(OC)c(OC)c4)cnc3N)cc2)c(=O)c(-c2ccc(F)cc2)c1 [Example 15, N-{4-[2-Amino-5-(3,4-dimethoxyphenyl)pyridin-3-yl]phenyl}-5-(4-fluorophenyl)-1-[2-(methylamino)-2-oxoethyl]-4-oxo-1,4-dihydropyridine-3-carboxamide]
0.1 to 1 nM	COc1ccc(-c2cnc(N)c(-c3ccc(NC(=O)c4cn(CC(F)(F)OC)cc(-c5ccc(F)cc5)c4=O)cc3)c2)cc1OC [Example 17, N-{4-[2-Amino-5-(3,4-dimethoxyphenyl)pyridin-3-yl]phenyl}-1-(2,2-difluoro-2-methoxyethyl)-5-(4-fluorophenyl)-4-oxo-1,4-dihydropyridine-3-carboxamide]
0.1 to 1 nM	COc1ccc(-c2cnc(N)c(-c3ccc(NC(=O)c4cn(CC(F)(F)F)cc(-c5ccc(C)cc5)c4=O)cc3)c2)cc1OC [Example 24, N-{4-[2-Amino-5-(3,4-dimethoxyphenyl)pyridin-3-yl]phenyl}-5-(4-methylphenyl)-4-oxo-1-(2,2,2-trifluoroethyl)-1,4-dihydropyridine-3-carboxamide]
0.1 to 1 nM	COc1ccc(-c2cnc(N)c(-c3ccc(NC(=O)c4cn(Cc5ccc(F)cc5)cc(C(=O)N5CCCC5)c4=O)cc3)c2)cc1OC [Example 26, N-{4-[2-Amino-5-(3,4-dimethoxyphenyl)pyridin-3-yl]phenyl}-1-(4-fluorobenzyl)-4-oxo-5-(pyrrolidin-1-ylcarbonyl)-1,4-dihydropyridine-3-carboxamide]
0.1 to 1 nM	COc1ccc(-c2cnc(N)c(-c3ccc(NC(=O)c4cn(Cc5ccc(F)cc5)cc(C(=O)N5C[C@@H](C)O[C@@H](C)C5)c4=O)cc3)c2)cc1OC [Example 27, N-{4-[2-Amino-5-(3,4-dimethoxyphenyl)pyridin-3-yl]phenyl}-5-{[(2R,6S)-2,6-dimethylmorpholin-4-yl]carbonyl}-1-(4-fluorobenzyl)-4-oxo-1,4-dihydropyridine-3-carboxamide]
